Laboratory results as given in ChEMBL document CHEMBL5365460, “Structural Mechanism and Inhibitors Targeting EGFR Exon 20 Insertion (Ex20ins) Mutations” (J Med Chem, 2023).

Experiments:
BaF3 [1] = experiment: Antiproliferative activity against mouse BaF3 cells harboring wild type EGFR; type: functional, cell-based
[2] = Antiproliferative activity against mouse Ba/F3 EGFR-D770-N771ins_SVD cells; type: functional, cell-based
[3] = Selectivity index, ratio of IC50 for antiproliferative activity against mouse BaF3 cells harboring wild type EGFR to IC50 for antiproliferative activity against mouse Ba/F3 EGFR-V769_D770insASV cells; type: functional
[4] = Antiproliferative activity against mouse Ba/F3 EGFR-V769_D770insASV cells; type: functional, cell-based
BaF3 [5] = experiment: Antiproliferative activity against mouse BaF3 cells harboring wild type EGFR incubated for 48 hrs by Cell Titer-Glo assay; type: functional, cell-based; details: BaF3, 48 h
[6] = Antiproliferative activity against mouse Ba/F3 EGFR-V769_D770insASV cells incubated for 48 hrs by Cell Titer-Glo assay; type: functional, cell-based
[7] = Antiproliferative activity against mouse Ba/F3 EGFR-D770-N771ins_SVD cells incubated for 48 hrs by Cell Titer-Glo assay; type: functional, cell-based
BaF3 [8] = experiment: Antiproliferative activity against mouse BaF3 cells harboring EGFR-D770-N771insNPG mutant incubated for 48 hrs by Cell Titer-Glo assay; type: functional, cell-based; details: BaF3, 48 h
[9] = Antiproliferative activity against mouse Ba/F3 EGFR-H773-V774ins_NPH cells; type: functional, cell-based
[10] = Antiproliferative activity against mouse Ba/F3 EGFR-A763_Y764insFQEA cells; type: functional, cell-based
BaF3 [11] = experiment: Antiproliferative activity against mouse BaF3 cells harboring wild type EGFR incubated for 3 days by Cell Titer-Glo assay; type: functional, cell-based; details: BaF3, 72 h
[12] = Antiproliferative activity against mouse Ba/F3 EGFR-A763_Y764insFQEA cells incubated for 3 days by Cell Titer-Glo assay; type: functional, cell-based; details: 72 h
[13] = Antiproliferative activity against mouse Ba/F3 EGFR-V769_D770insASV cells incubated for 3 days by Cell Titer-Glo assay; type: functional, cell-based; details: 72 h
[14] = Antiproliferative activity against mouse Ba/F3 EGFR-D770-N771ins_SVD cells incubated for 3 days by Cell Titer-Glo assay; type: functional, cell-based; details: 72 h
BaF3 [15] = experiment: Antiproliferative activity against mouse BaF3 cells harboring EGFR-D770-N771insNPG mutant incubated for 3 days by Cell Titer-Glo assay; type: functional, cell-based; details: BaF3, 72 h
[16] = Antiproliferative activity against mouse Ba/F3 EGFR-H773-V774ins_NPH cells incubated for 3 days by Cell Titer-Glo assay; type: functional, cell-based; details: 72 h
NIH3T3 [17] = experiment: Antiproliferative activity against mouse NIH/3T3 cells harboring wild type EGFR incubated for 72 hrs by Cell Titer-Glo assay; type: functional, cell-based; details: NIH3T3, 72 h
NIH3T3 [18] = experiment: Antiproliferative activity against mouse NIH/3T3 cells harboring EGFR-A763_Y764insFQEA incubated for 72 hrs by Cell Titer-Glo assay; type: functional, cell-based; details: NIH3T3, 72 h
NIH3T3 [19] = experiment: Antiproliferative activity against mouse NIH/3T3 cells harboring EGFR-V769_D770insASV incubated for 72 hrs by Cell Titer-Glo assay; type: functional, cell-based; details: NIH3T3, 72 h
NIH3T3 [20] = experiment: Antiproliferative activity against mouse NIH/3T3 cells harboring EGFR-D770-N771ins_SVD incubated for 72 hrs by Cell Titer-Glo assay; type: functional, cell-based; details: NIH3T3, 72 h
NIH3T3 [21] = experiment: Antiproliferative activity against mouse NIH/3T3 cells harboring EGFR-H773-V774ins_NPH incubated for 72 hrs by Cell Titer-Glo assay; type: functional, cell-based; details: NIH3T3, 72 h
BaF3 [22] = experiment: Antiproliferative activity against mouse Ba/F3 cells harboring EGFR-D770-N771ins_G mutant incubated for 3 days by Cell Titer-Glo assay; type: functional, cell-based; details: BaF3, 72 h
BaF3 [23] = experiment: Antiproliferative activity against mouse Ba/F3 cells harboring EGFR-H773-V774ins_PH mutant incubated for 3 days by Cell Titer-Glo assay; type: functional, cell-based; details: BaF3, 72 h
[24] = target: Epidermal growth factor receptor (Homo sapiens, UniProt P00533); experiment: Inhibition of wildtype EGFR (unknown origin) phosphorylation
[25] = target: Epidermal growth factor receptor (Homo sapiens, UniProt P00533, D770-N771INSNPG); experiment: Inhibition of EGFR-D770-N771insNPG mutant (unknown origin) phosphorylation
[26] = Selectivity index, ratio of IC50 for antiproliferative activity against mouse BaF3 cells harboring wild type EGFR to IC50 for antiproliferative activity against mouse Ba/F3 EGFR-A763_Y764insFQEA cells; type: functional
[27] = Selectivity index, ratio of IC50 for antiproliferative activity against mouse BaF3 cells harboring wild type EGFR to IC50 for antiproliferative activity against mouse Ba/F3 EGFR-D770-N771ins_SVD cells; type: functional
[28] = Selectivity index, ratio of IC50 for antiproliferative activity against mouse BaF3 cells harboring wild type EGFR to IC50 for antiproliferative activity against mouse BaF3 cells harboring EGFR-D770-N771insNPG mutant; type: functional
[29] = Selectivity index, ratio of IC50 for antiproliferative activity against mouse BaF3 cells harboring wild type EGFR to IC50 for antiproliferative activity against mouse Ba/F3 EGFR-H773-V774ins_NPH cells; type: functional
[30] = Antiproliferative activity against mouse Ba/F3 EGFR-A763_Y764insFQEA cells incubated for 72 hrs by CCK-8 assay; type: functional, cell-based
[31] = Antiproliferative activity against mouse Ba/F3 EGFR-V769_D770insASV cells incubated for 72 hrs by CCK-8 assay; type: functional, cell-based
[32] = Antiproliferative activity against mouse Ba/F3 EGFR-D770-N771ins_SVD cells incubated for 72 hrs by CCK-8 assay; type: functional, cell-based
[33] = Antiproliferative activity against mouse Ba/F3 EGFR-H773-V774ins_NPH cells incubated for 72 hrs by CCK-8 assay; type: functional, cell-based
BaF3 [34] = experiment: Antiproliferative activity against mouse BaF3 cells harboring EGFR exon 20 insertion mutant incubated for 72 hrs by Cell Titer-Glo assay; type: functional, cell-based; details: BaF3, 72 h
BaF3 [35] = experiment: Potency index, ratio of afatinib IC50 to test compound IC50 for antiproliferative activity against mouse BaF3 cells harboring EGFR exon 20 insertion mutant incubated for 72 hrs by Cell Titer-Glo assay; type: functional
[36] = Antiproliferative activity against human CUTO14 cells harboring EGFR V769_D770insASV mutant incubated for 72 hrs by Cell Titer-Glo assay; type: functional, cell-based; details: CUTO14, 72 h
[37] = Antiproliferative activity against human YUL-0019 cells harboring EGFR N771delinsFH mutant incubated for 72 hrs by Cell Titer-Glo assay; type: functional, cell-based; details: YUL-0019, 72 h
[38] = Metabolic stability in human hepatocytes assessed as intrinsic clearance measured per 10^6 cells at 100 uM measured upto 100 mins by LC-MS/MS analysis; type: ADME, cell-based, Hepatocyte; details: read-out: CLH
[39] = Antiproliferative activity against human CUTO14 cells harboring EGFR V769_D770insASV mutant incubated for 72 hrs by MTS assay; type: functional, cell-based; details: CUTO14, 72 h

Chain of Epidermal growth factor receptor (Homo sapiens, UniProt P00533) (P00533 whole entry): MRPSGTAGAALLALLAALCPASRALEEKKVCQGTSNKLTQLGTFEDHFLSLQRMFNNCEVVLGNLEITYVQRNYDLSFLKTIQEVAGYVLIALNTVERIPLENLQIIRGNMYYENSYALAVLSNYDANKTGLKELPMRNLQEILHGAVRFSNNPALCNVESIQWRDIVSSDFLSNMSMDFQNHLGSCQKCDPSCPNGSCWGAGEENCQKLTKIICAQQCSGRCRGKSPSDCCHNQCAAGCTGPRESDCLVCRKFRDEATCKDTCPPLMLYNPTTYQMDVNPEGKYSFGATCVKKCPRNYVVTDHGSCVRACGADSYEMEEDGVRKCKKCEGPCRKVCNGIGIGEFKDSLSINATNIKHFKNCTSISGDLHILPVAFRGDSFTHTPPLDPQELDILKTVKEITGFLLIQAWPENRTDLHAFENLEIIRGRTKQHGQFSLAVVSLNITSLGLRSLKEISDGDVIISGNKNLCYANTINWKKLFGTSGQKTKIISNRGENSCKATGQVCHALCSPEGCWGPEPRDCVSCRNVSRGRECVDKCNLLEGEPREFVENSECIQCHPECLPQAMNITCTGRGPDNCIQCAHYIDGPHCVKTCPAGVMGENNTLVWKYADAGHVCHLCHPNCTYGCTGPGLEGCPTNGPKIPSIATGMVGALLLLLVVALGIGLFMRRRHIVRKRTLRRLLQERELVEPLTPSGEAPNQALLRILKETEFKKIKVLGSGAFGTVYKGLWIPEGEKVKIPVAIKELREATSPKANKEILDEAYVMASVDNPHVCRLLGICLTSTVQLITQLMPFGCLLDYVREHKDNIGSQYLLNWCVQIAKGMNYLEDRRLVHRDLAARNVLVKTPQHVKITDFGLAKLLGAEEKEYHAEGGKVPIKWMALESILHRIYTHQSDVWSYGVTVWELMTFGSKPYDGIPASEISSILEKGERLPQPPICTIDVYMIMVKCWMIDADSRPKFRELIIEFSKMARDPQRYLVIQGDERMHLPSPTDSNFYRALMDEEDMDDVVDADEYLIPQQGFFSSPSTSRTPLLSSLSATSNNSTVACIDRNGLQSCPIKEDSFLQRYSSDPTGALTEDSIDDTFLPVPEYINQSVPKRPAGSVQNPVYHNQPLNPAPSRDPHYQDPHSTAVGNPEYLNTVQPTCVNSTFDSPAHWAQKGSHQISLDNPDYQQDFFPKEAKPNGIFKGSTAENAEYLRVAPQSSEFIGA
Chain of Epidermal growth factor receptor (Homo sapiens, UniProt P00533, D770-N771INSNPG) (P00533 whole entry, looked up, stated change not applied): as the sequence (P00533 whole entry) above

C=CC(=O)Nc1cccc(N(C(=O)OCc2ccc(F)cc2)c2ccnc(Nc3cnn(C)c3)n2)c1
IC50 (BaF3 [1]): 7.6 nM
IC50 [2]: 15 nM
Ratio IC50 [3]: 0.22
IC50 [4]: 34 nM

COc1c(F)cccc1Nc1c(-c2ccncc2OCC(C)(C)OC)[nH]c2c1C(=O)NCC2
Ratio IC50 [3]: 25.9
IC50 (BaF3 [5]): 397 nM
IC50 [6]: 15.3 nM
IC50 [7]: 11.9 nM
IC50 (BaF3 [8]): 12.8 nM

COc1c(Cl)cccc1Nc1c(-c2ccncc2C#C[C@@]2(C)CCCN2C(=O)/C=C/CN(C)C)[nH]c2c1C(=O)NCC2
IC50 [2]: 6.22 nM
IC50 [4]: 5.62 nM
IC50 [9]: 16.7 nM
IC50 [10]: 7.7 nM

CN(C)C/C=C/C(=O)Nc1cc2c(Nc3ccc(F)c(Cl)c3)ncnc2cc1O[C@H]1CCOC1 [AFATINIB]
IC50 (BaF3 [11]): 3.8 nM
IC50 [12]: 2.7 nM
IC50 [13]: 46 nM
IC50 [14]: 163 nM
IC50 (BaF3 [15]): 40 nM
IC50 [16]: 102 nM
Ratio IC50 [3]: 0.08

C=CC(=O)N[C@H]1C=C(C)c2c(-c3cnc4ccccc4c3)c3c(N)ncnc3n2C1 [CLN-081]
IC50 (BaF3 [11]): 676 nM
IC50 [12]: 5 nM
IC50 [13]: 5 nM
IC50 [14]: 5 nM
IC50 [16]: 5 nM
IC50 (NIH3T3 [17]): 368 nM
IC50 (NIH3T3 [18]): < 4.48 nM
IC50 (NIH3T3 [19]): 78.2 nM
IC50 (NIH3T3 [20]): 23.4 nM
IC50 (NIH3T3 [21]): 66.7 nM
IC50 (BaF3 [22]): 5 nM
IC50 (BaF3 [23]): 5 nM
IC50 [24]: 8 nM
IC50 [25]: 7.4 nM

C#Cc1cccc(Nc2ncnc3cc(OCCOC)c(OCCOC)cc23)c1 [ERLOTINIB]
IC50 (BaF3 [11]): 71 nM
IC50 [12]: 214 nM
IC50 [13]: 1340 nM
IC50 [14]: 3480 nM
IC50 (BaF3 [15]): 2320 nM
IC50 [16]: 2700 nM
Ratio IC50 [3]: 0.05

C=CC(=O)Nc1cc(Nc2ncc(C(=O)OC(C)C)c(-c3cn(C)c4ccccc34)n2)c(OC)cc1N(C)CCN(C)C [MOBOCERTINIB]
IC50 (BaF3 [11]): 34.5 nM
IC50 [12]: 11.8 nM
IC50 [13]: 10.9 nM
IC50 [14]: 22.5 nM
IC50 (BaF3 [15]): 4.3 nM
IC50 [16]: 18.1 nM
Ratio IC50 [3]: 3.17
Ratio IC50 [26]: 1.5
Ratio IC50 [27]: 1.5
Ratio IC50 [28]: 1.5
Ratio IC50 [29]: 1.5

C=CC(=O)Nc1cc(Nc2nccc(-c3cn(C)c4ccccc34)n2)c(OC)cc1N(C)CCN(C)C [OSIMERTINIB]
IC50 (BaF3 [11]): 350 nM
IC50 [12]: 87 nM
IC50 [13]: 173 nM
IC50 [14]: 576 nM
IC50 (BaF3 [15]): 57 nM
IC50 [16]: 469 nM
Ratio IC50 [3]: 2.02

C=CC(=O)N1CCC(Oc2cc3c(Nc4ccc(Cl)c(Cl)c4F)ncnc3cc2OC)CC1 [POZIOTINIB]
IC50 [30]: 0.7 nM
IC50 [31]: 4.8 nM
IC50 [32]: 2.7 nM
IC50 [33]: 2.2 nM
IC50 (BaF3 [34]): 1 nM
Ratio IC50 (BaF3 [35]): ~40
IC50 [36]: 1.8 nM
IC50 [37]: 0.3 nM

C=CC(=O)Nc1cc(Nc2nccc(Nc3cc(Cl)c(F)cc3C(C)(C)O)n2)c(OC)cc1N1CC[C@@H](N(C)C)C1 [SUNVOZERTINIB]
IC50 (BaF3 [11]): 12.7 nM
IC50 [13]: 22.1 nM
IC50 [16]: 29.6 nM
Ratio IC50 [3]: 0.57
hepatocyte CLint at 100 µM [38]: 2.77 µL/min/1e6 cells

CN(C)C/C=C/C(=O)Nc1cc2c(Nc3ccc(Cl)c(Br)c3)ncnc2cn1 [TH-4000E]
IC50 [30]: < 0.5 nM
IC50 [31]: 7.6 nM
IC50 [32]: 7.3 nM
IC50 [33]: 9.9 nM
IC50 [39]: 72 nM

C=CC(=O)Nc1cc2c(Nc3ccc(OCc4ccccn4)c(Cl)c3)ncnc2cc1OCCN1CCOCC1 [TUXOBERTINIB]
IC50 (BaF3 [1]): ~1000 nM
IC50 [2]: < 100 nM
